From ChEMBL document CHEMBL1201862, “PubChem BioAssay data set” (2004)
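1) Cells in 96-well plates. 2) Compound, 48 h, 5 concentrations. 3) Linear interpolation between surrounding doses. 4) Unreached endpoint = highest concentration. GI50 = concentration required for 50% inhibition of growth.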 The source made the active and inactive calls. No stated cut-off is given here; in the data, active = GI50 up to about 1.1 µM and inactive = higher.

Key:
Test in all cases: NCI-60 cell line screen, 48 h
SF-268 = system: SF-268
SN12C = system: SN12C
OVCAR-8 = system: OVCAR-8
SK-MEL-28 = system: SK-MEL-28
U-251 = system: U-251
EKVX = system: EKVX
NCI/ADR-RES = system: NCI/ADR-RES
RPMI-8226 = system: RPMI-8226
SK-MEL-5 = system: SK-MEL-5
HOP-62 = system: HOP-62
HOP-92 = system: HOP-92
ACHN = system: ACHN
SW-620 = system: SW-620
RXF 393 = system: RXF 393
HL-60 = system: HL-60
Malme-3M = system: Malme-3M
LOX IMVI = system: LOX IMVI
A498 = system: A498

SMILES | GI50 (SF-268) | GI50 (SN12C) | GI50 (OVCAR-8) | GI50 (SK-MEL-28) | GI50 (U-251) | GI50 (EKVX) | GI50 (NCI/ADR-RES) | GI50 (RPMI-8226) | GI50 (SK-MEL-5) | GI50 (HOP-62) | GI50 (HOP-92) | GI50 (ACHN) | GI50 (SW-620) | GI50 (RXF 393) | GI50 (HL-60) | GI50 (Malme-3M) | GI50 (LOX IMVI) | GI50 (A498)
COc1ccc2nc3n(c2c1)C(=O)c1ccccc1-3 | > 100 µM (inactive) | > 100 µM (inactive) | > 100 µM (inactive) | > 100 µM (inactive) | > 100 µM (inactive) | > 100 µM (inactive) | > 100 µM (inactive) | > 100 µM (inactive) | > 100 µM (inactive) | > 100 µM (inactive) | > 100 µM (inactive) | > 100 µM (inactive) | > 100 µM (inactive) | > 100 µM (inactive) | > 100 µM (inactive) | > 100 µM (inactive) | – | –
CCCCN(CCCC)CC(C(=O)Nc1ccccc1)/C(C)=N\NC(=O)c1ccncc1 (stereo not given) | > 100 µM (inactive) | > 100 µM (inactive) | > 100 µM (inactive) | > 100 µM (inactive) | > 100 µM (inactive) | – | – | > 100 µM (inactive) | > 100 µM (inactive) | > 100 µM (inactive) | > 100 µM (inactive) | > 100 µM (inactive) | > 100 µM (inactive) | > 100 µM (inactive) | 98.2 µM (inactive) | > 100 µM (inactive) | 81.5 µM (inactive) | –
Cc1cccc2c(O)cc(=O)oc12 | > 100 µM (inactive) | > 100 µM (inactive) | > 100 µM (inactive) | > 100 µM (inactive) | > 100 µM (inactive) | > 100 µM (inactive) | – | > 100 µM (inactive) | – | > 100 µM (inactive) | – | > 100 µM (inactive) | > 100 µM (inactive) | > 100 µM (inactive) | > 100 µM (inactive) | > 100 µM (inactive) | > 100 µM (inactive) | > 100 µM (inactive)
CCn1c(=O)nc2n(-c3ccccc3)c3ccccc3nc-2c1=O | 17.3 µM (inactive) | 20.6 µM (inactive) | 19.5 µM (inactive) | 32.8 µM (inactive) | 17.5 µM (inactive) | 43.7 µM (inactive) | – | 21.8 µM (inactive) | 10.4 µM (inactive) | 31.7 µM (inactive) | 18.3 µM (inactive) | 4.21 µM (inactive) | 14.4 µM (inactive) | – | 10.7 µM (inactive) | 16.3 µM (inactive) | – | 47.4 µM (inactive)
CCOC(=O)c1cc2c(cn1)[nH]c1cccc(N)c12 | > 100 µM (inactive) | > 100 µM (inactive) | > 100 µM (inactive) | > 100 µM (inactive) | > 100 µM (inactive) | – | – | – | > 100 µM (inactive) | > 100 µM (inactive) | > 100 µM (inactive) | > 100 µM (inactive) | > 100 µM (inactive) | > 100 µM (inactive) | 14.6 µM (inactive) | > 100 µM (inactive) | > 100 µM (inactive) | –
C=CCN(N=O)C(=O)NCCCC(NC(C)=O)C(=O)NCc1ccccc1 (stereo not given) | > 100 µM (inactive) | > 100 µM (inactive) | > 100 µM (inactive) | > 100 µM (inactive) | > 100 µM (inactive) | > 100 µM (inactive) | – | > 100 µM (inactive) | > 100 µM (inactive) | > 100 µM (inactive) | 61.5 µM (inactive) | > 100 µM (inactive) | > 100 µM (inactive) | > 100 µM (inactive) | > 100 µM (inactive) | > 100 µM (inactive) | > 100 µM (inactive) | > 100 µM (inactive)
CC1(C)N=C(Oc2ccccc2)n2nccc2N1 | > 100 µM (inactive) | > 100 µM (inactive) | – | > 100 µM (inactive) | > 100 µM (inactive) | > 100 µM (inactive) | – | > 100 µM (inactive) | > 100 µM (inactive) | > 100 µM (inactive) | > 100 µM (inactive) | > 100 µM (inactive) | > 100 µM (inactive) | > 100 µM (inactive) | > 100 µM (inactive) | > 100 µM (inactive) | 53.8 µM (inactive) | > 100 µM (inactive)
CC(C)(C)C(=O)Cc1cc2c(cc1C(=O)O)S(=O)(=O)NC(C(C)(C)C)=C2 | > 100 µM (inactive) | > 100 µM (inactive) | > 100 µM (inactive) | > 100 µM (inactive) | > 100 µM (inactive) | > 100 µM (inactive) | – | > 100 µM (inactive) | – | > 100 µM (inactive) | > 100 µM (inactive) | > 100 µM (inactive) | > 100 µM (inactive) | – | > 100 µM (inactive) | > 100 µM (inactive) | – | > 100 µM (inactive)
O=c1[nH]c2cccccc-2c1-c1nc2ccccc2[nH]1 | 14.9 µM (inactive) | 31.6 µM (inactive) | 26.5 µM (inactive) | 20.3 µM (inactive) | 21.8 µM (inactive) | 40.8 µM (inactive) | – | 28.5 µM (inactive) | 18.7 µM (inactive) | 39.8 µM (inactive) | 25.8 µM (inactive) | 14.1 µM (inactive) | 69.5 µM (inactive) | 20.9 µM (inactive) | 36.6 µM (inactive) | 21.3 µM (inactive) | 14.9 µM (inactive) | –
COc1ccccc1C(N)c1ccccc1 (stereo not given) | > 100 µM (inactive) | > 100 µM (inactive) | > 100 µM (inactive) | > 100 µM (inactive) | > 100 µM (inactive) | > 100 µM (inactive) | – | > 100 µM (inactive) | > 100 µM (inactive) | > 100 µM (inactive) | 36 µM (inactive) | > 100 µM (inactive) | > 100 µM (inactive) | > 100 µM (inactive) | > 100 µM (inactive) | > 100 µM (inactive) | > 100 µM (inactive) | > 100 µM (inactive)
Cc1ccc(NC(=O)CCC(=O)C2CC(=O)CC/C2=N\NC(=O)c2cc3ccccc3cc2O)cc1C (stereo not given) | 17.3 µM (inactive) | 48.9 µM (inactive) | 24.7 µM (inactive) | 65 µM (inactive) | 40.1 µM (inactive) | 29 µM (inactive) | – | 25 µM (inactive) | 14.5 µM (inactive) | 43.4 µM (inactive) | 14.3 µM (inactive) | 18.9 µM (inactive) | 25.6 µM (inactive) | – | 4.35 µM (inactive) | 30.4 µM (inactive) | – | 38.4 µM (inactive)
COc1ccc(Cc2nccc3cc(OC)c(OC)cc23)cc1 | 65.5 µM (inactive) | 36.9 µM (inactive) | 91.8 µM (inactive) | > 100 µM (inactive) | > 100 µM (inactive) | > 100 µM (inactive) | – | 20.9 µM (inactive) | 35.7 µM (inactive) | > 100 µM (inactive) | – | 43.3 µM (inactive) | > 100 µM (inactive) | – | – | > 100 µM (inactive) | – | 42.2 µM (inactive)
CCCCn1c(-c2ccccc2)cs/c1=N\N=C1C=C(C(C)(C)C)C(=O)C(C(C)(C)C)=C1 | > 100 µM (inactive) | > 100 µM (inactive) | > 100 µM (inactive) | – | > 100 µM (inactive) | > 100 µM (inactive) | – | – | – | > 100 µM (inactive) | – | > 100 µM (inactive) | > 100 µM (inactive) | > 100 µM (inactive) | > 100 µM (inactive) | > 100 µM (inactive) | > 100 µM (inactive) | > 100 µM (inactive)
COc1ccc(C2S/C(=C\c3cc(OC)c(OC)c(OC)c3)C(=O)N2NC(=O)Cc2ccccc2)cc1 (stereo not given) | > 100 µM (inactive) | > 100 µM (inactive) | > 100 µM (inactive) | > 100 µM (inactive) | > 100 µM (inactive) | – | – | > 100 µM (inactive) | 22.1 µM (inactive) | > 100 µM (inactive) | > 100 µM (inactive) | > 100 µM (inactive) | > 100 µM (inactive) | > 100 µM (inactive) | > 100 µM (inactive) | > 100 µM (inactive) | > 100 µM (inactive) | –
Oc1c2cc(Cl)cc1COCc1cc(Cl)cc(c1O)COCc1cc(Cl)cc(c1O)COC2 | – | – | 11.8 µM (inactive) | > 100 µM (inactive) | 29.4 µM (inactive) | 54 µM (inactive) | 38.8 µM (inactive) | > 100 µM (inactive) | > 100 µM (inactive) | 19.7 µM (inactive) | 6.9 µM (inactive) | > 100 µM (inactive) | > 100 µM (inactive) | 18.3 µM (inactive) | 2.88 µM (inactive) | – | 36.7 µM (inactive) | 82.8 µM (inactive)
Nc1ccn(CCOC(c2ccccc2)P(=O)(O)O)c(=O)n1 (stereo not given) | > 100 µM (inactive) | > 100 µM (inactive) | > 100 µM (inactive) | > 100 µM (inactive) | > 100 µM (inactive) | > 100 µM (inactive) | – | – | > 100 µM (inactive) | – | – | > 100 µM (inactive) | > 100 µM (inactive) | > 100 µM (inactive) | > 100 µM (inactive) | > 100 µM (inactive) | > 100 µM (inactive) | > 100 µM (inactive)
CC(C)(C)OC(=O)N1C2CCCC23O[C@@H]1c1cc2c(cc1C3=O)OCO2 (stereo not given in full) | 41.8 µM (inactive) | 41.2 µM (inactive) | 61.1 µM (inactive) | 67.3 µM (inactive) | 41.3 µM (inactive) | 43.9 µM (inactive) | – | – | 4.41 µM (inactive) | 23.6 µM (inactive) | 28.6 µM (inactive) | 54.1 µM (inactive) | 22.4 µM (inactive) | 24.5 µM (inactive) | 5.25 µM (inactive) | 25.6 µM (inactive) | – | > 10 µM (inactive)
CCCCCCCCCCCCCCCC[N+](C)(C)Cc1ccc(C[N+](C)(C)CCCCCCCCCCCCCCCC)cc1 | 2.38 µM (inactive) | 1.95 µM (inactive) | 2.04 µM (inactive) | 2.3 µM (inactive) | 1.96 µM (inactive) | 3 µM (inactive) | – | 2.63 µM (inactive) | 6.12 µM (inactive) | 4.76 µM (inactive) | – | 3.71 µM (inactive) | 2.99 µM (inactive) | 0.923 µM (active) | 2.3 µM (inactive) | – | 2.74 µM (inactive) | > 100 µM (inactive)
